Experimental data published in patent US10934280B2, “Condensed thiophene derivatives useful as NaPi-IIb inhibitors” (Eli Lilly and Company, priority 2016, dated 2021).
Structures can show the parent of a compound that is named as a salt. One block for each molecule: values may come before it.

Tests used:
NaPi-IIb = biological target: T1, NaPi-IIb (Mus musculus, UniProt Q9DBP0); assay: Inhibition of NaPi-IIb in vivo: plasma counts after oral radioactive phosphate in mice
T1 construct: from tissue; host or cells: living C57Bl6 mice (gastrointestinal tract)
T1 sequence (Q9DBP0 1-697): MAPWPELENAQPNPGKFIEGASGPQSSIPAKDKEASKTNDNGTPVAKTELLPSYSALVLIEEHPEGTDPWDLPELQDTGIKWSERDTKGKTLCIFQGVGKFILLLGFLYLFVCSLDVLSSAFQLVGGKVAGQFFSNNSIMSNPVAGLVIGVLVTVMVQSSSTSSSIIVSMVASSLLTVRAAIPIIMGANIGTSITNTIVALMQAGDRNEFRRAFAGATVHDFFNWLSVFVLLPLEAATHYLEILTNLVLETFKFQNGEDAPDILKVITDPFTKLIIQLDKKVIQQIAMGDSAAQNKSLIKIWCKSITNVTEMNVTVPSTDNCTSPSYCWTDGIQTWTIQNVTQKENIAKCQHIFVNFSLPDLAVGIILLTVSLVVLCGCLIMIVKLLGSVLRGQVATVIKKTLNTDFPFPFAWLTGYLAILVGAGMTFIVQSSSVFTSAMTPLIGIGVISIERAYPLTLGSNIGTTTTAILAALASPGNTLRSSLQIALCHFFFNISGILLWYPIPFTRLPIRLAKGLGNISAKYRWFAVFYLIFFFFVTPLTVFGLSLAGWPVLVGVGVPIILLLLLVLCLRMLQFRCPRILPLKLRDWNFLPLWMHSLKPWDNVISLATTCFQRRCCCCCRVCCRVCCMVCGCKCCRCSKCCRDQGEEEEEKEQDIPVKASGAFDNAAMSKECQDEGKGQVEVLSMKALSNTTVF
Description: For test article and vehicle control preparation, add vehicle, 20% hydroxypropyl-beta-cyclodextrin (HPBCD) in water, to the test article. Sonicate to reduce particle size in an ultrasonic water bath as needed. If necessary, use a polytron to break down any visible particles in test article solution. The pH of the vehicle control is adjusted to 8.0 to 8.5 with 1N NaOH.
Radioactive phosphate preparation: Prepare a 16.25 mM Na2HPO4 solution using 0.9% saline as the vehicle. Mix until a clear solution is formed. Adjust pH to approximately 7.4. Filter using a sterile 0.2 μm polyethersulfone membrane. For the final preparation of the radioactive phosphate dosing solution, add 0.5 μl of stock H3^3PO4 per 1 mL of Na2HPO4. Mix thoroughly then sterile filter the H3^33PO4+Na2HPO4 solution using a 0.2 μm polyethersulfone membrane prior to dosing. Measure the radioactivity of each sample with the scintillation counter. If the DPMs are between 100,000 and 150,000 proceed with dosing.
In-vivo protocol: Male C57B16 male mice at the age of about 8-9 wks old are fasted for 16 hrs the day before the study. They are assigned to treatment groups based on body weight on the day of study. Mice are dosed orally with either the test article, prepared as described above, or vehicle control at a 10 mis/kg dose volume. Fifteen minutes later, the radioactive phosphate dosing solution is given by oral gavage. Fifteen minutes later, blood is collected by orbital bleed. Plasma is prepared and 50 μl of EDTA plasma from each mouse is mixed with 10 ml of scintillation fluid and the counts determined by scintillation counting. The effect of the test article is determined by comparing the counts in the plasma from the test article treated animals to counts in the plasma of the vehicle control treated animals [Percent Inhibition=[…]]. Percent inhibition is measured at 30 minutes post administration of the compound or vehicle, and at 15 minutes post administration of the labelled phosphate. Percent Inhibition for indicated Examples are illustrated in Table 3 below.
Alternative vehicles, for example poly-1-vinylpyrrolidone-co-vinyl acetate (PVP-VA), at varying concentrations, may be used. Example 1 can be assayed in PVP-VA, and for this study the compound is formulated as described in the solid dispersion preparation of Example 1, followed by dissolving in water then dosing by oral gavage. The vehicle control is water with varying concentrations of PVP-VA, matching the concentration found in the highest dose of Example 1, the lowest dose of Example 1, and an intermediate dose of Example 1. No effect of varying PVP-VA on the uptake of radiolabeled phosphate is observed over several studies, and thus all the vehicles are averaged to calculate percent inhibition.

gastric emptying = assay: Effect on gastric emptying in vivo (radiolabeled phosphate recovered from stomach); parameters: species or system mice
Description: The effect of a test compound on gastric emptying can be assessed by dosing the compound and radiolabeled phosphate in a manner similar to that used to assess a compound's ability to inhibit NaPi-IIb in vivo. After bleeding the mice, they were sacrificed and their stomachs harvested. The harvested stomachs are digested in 10 ml of 1N NaOH overnight, and the recovered radiolabeled phosphate DPMs determined by scintillation counting. The compound mediated effect on the rate of gastric emptying is determined by comparing the dpms in the stomach of animals treated with compound, to that of animals treated with vehicle.

normal rats = assay: Four-day in vivo tolerability/toxicity in normal rats; details: administered in vivo to normal rats for four days
Text: Compounds of the invention, for instance Example 1, show advantageous pharmacological properties, such as potency, in vivo distribution, in vivo efficacy, and favorable lack of toxicity in preclinical testing.

murine NaPi-IIb = biological target: T2, murine NaPi-IIb (Mus musculus, UniProt Q9DBP0); assay: Inhibition of 33P uptake in mouse NaPi-IIb T-REX-CHO stable cell line; type: cell-based; details: 60 min at RT, geometric mean (SD), read-out: m NaPi-IIb rel IC50 (nM), (SD)
T2 construct: expressed in transfected cells
T2 sequence (Q9DBP0 1-697): T1 sequence (Q9DBP0 1-697)
Description: Inhibition of ^33P uptake is measured in human and mouse NaPi-IIb T-REX™-CHO stable cell lines. cDNA for NaPi-IIb is subcloned in plasmid SLC34A2 pcDNA5/TO (human) and SLC34A2 pcDNA5/TO (mouse) and stable cell lines are generated from clonal isolation for both human and mouse respectively. Mouse and human stable lines are maintained in continuous culture in growth media (Dulbecco's Modified Eagle Medium: Nutrient Mixture F-12 (3:1), 10% Heat Inactivated FBS, 1% penicillin/streptomycin/FUNGIEZONE® (HYCLONE™), 20 mM HEPES, 250 μg/mL hygromycin, 5 μg/mL blasticidin). Cells are harvested from T225 cell culture flasks (CORNING®) using 0.25% Trypsin, and plated in 96 well CYTOSTAR-T™ scintillating microplates (Amersham Systems) at 40,000 cells/well in 100 μL of growth media plus 100 ng/mL of tetracycline. Cell plates are incubated overnight at 37° C. and 5% C02. The next day, compounds are serially diluted using one to three dilutions in 100% DMSO. Cell plates may remain in the incubator until ready to be assayed. A cell plate is removed from the incubator and media removed. Cells are washed 3 times with 200 μL assay buffer (137 mM NaCl, 5.4 mM KCl, 2.8 mM CaCl2), 1.2 mM MgSO4, and 14 mM Tris-HCl buffer, pH˜7.5), removing buffer in between washes. Serially diluted compounds in DMSO are further diluted 50 fold in assay buffer and 50 μL added to the CYTOSTAR-T™ assay plate, immediately followed by the addition of 50 μL of ^33P solution (PERKIN-ELMER®, Walton, Mass.; 0.05 μCi/50 μL). CYTOSTAR-T™ assay plates are covered with foil to protect from light and incubated for 60 min at RT. After the 60 min incubation, 100 μL of a stop solution (assay buffer+400 μM Phloretin) is added to the assay plate to stop ^33P uptake. The plate is immediately read on a Wallac MICROBETA® Trilux liquid scintillation counter and luminometer after stop solution is added with 1 minute count per well. Each plate may be processed separately and staggered in time so there may be no delay in counting after stop solution is added. Percent inhibition at all concentrations tested (final assay concentrations 100-0.005 μM) are calculated relative to 1% DMSO (minimum effect), and the effect of 100 μM of a fully efficacious NaPi-IIb inhibitor (maximum effect). IC50 values were calculated using a 4 parameter logistic curve fitting equation. The numbers presented are the geometric means with standard deviation (SD) calculated where n is the number of runs. Thus. Table 1 describes the relative IC50 values for Examples 1-28 against human NaPi-IIb and murine NaPi-IIb, respectively.

[1] = 5 mg/kg oral, 20% HPBCD vehicle, fasted male mice, 30 min post compound, 15 min post labelled phosphate

SMILES: CC1(C)CN(C(=O)NCCCCO)CCN1Cc1cccc(C(=O)Nc2sc3c(c2C(=O)Nc2cc(F)c(CCc4ccc(C(=O)O)cc4)c(F)c2)CCCC3)c1 [Example 1, 4-[2-[2,6-difluoro-4-[[2-[[3-[[4-(4-hydroxybutylcarbamoyl)-2,2-dimethyl-piperazin-1-yl]methyl]benzoyl]amino]-4,5,6,7-tetrahydrobenzothiophene-3-carbonyl]amino]phenyl]ethyl]benzoic Acid]
Percent Inhibition (NaPi-IIb; 0.03 mg/kg oral gavage, PVP-VA solid dispersion formulation in water, mice): 0.75%
Percent Inhibition (NaPi-IIb; 0.1 mg/kg oral gavage, PVP-VA solid dispersion formulation in water, mice): 30.61%
Percent Inhibition (NaPi-IIb; 0.3 mg/kg oral gavage, PVP-VA solid dispersion formulation in water, mice): 51.21%
Percent Inhibition (NaPi-IIb; 1 mg/kg oral gavage, PVP-VA solid dispersion formulation in water, mice): 66.90%
Percent Inhibition (NaPi-IIb; 3 mg/kg oral gavage, PVP-VA solid dispersion formulation in water, mice): 68.71%
Percent Inhibition (NaPi-IIb; 10 mg/kg oral gavage, PVP-VA solid dispersion formulation in water, mice): 75.64%
Percent Inhibition (NaPi-IIb; 30 mg/kg oral gavage, PVP-VA solid dispersion formulation in water, mice): 75.83%
margin of NaPi-IIb inhibition with respect to inhibition of in vivo gastric emptying (gastric emptying): surprisingly advantageous margin
tolerability (normal rats): generally well tolerated
toxicity (normal rats): advantageous lack of toxicity

IC50 (murine NaPi-IIb): 40.9 nM
SMILES: COCCN(CCOC)S(=O)(=O)N1CCN(Cc2cccc(C(=O)Nc3sc4c(c3C(=O)Nc3cc(F)c(CCc5ccc(C(=O)O)cc5)c(F)c3)CCCC4)c2)C(C)(C)C1 [Example 3, 4-[2-[4-[[2-[[3-[[4-[bis(2-methoxyethyl)sulfamoyl]-2,2-dimethyl-piperazin-1-yl]methyl]benzoyl]amino]-4,5,6,7-tetrahydrobenzothiophene-3-carbonyl]amino]-2,6-difluoro-phenyl]ethyl]benzoic Acid]

Percent Inhibition (NaPi-IIb; [1]): 52%
SMILES: CC1(C)CN(CCCC(=O)O)CCN1Cc1cccc(C(=O)Nc2sc3c(c2C(=O)Nc2cc(F)c(CCc4ccc(C(=O)O)cc4)c(F)c2)CCCC3)c1 [Example 4, 4-[2-[4-[[2-[[3-[[4-(3-carboxypropyl)-2,2-dimethyl-piperazin-1-yl]methyl]benzoyl]amino]-4,5,6,7-tetrahydrobenzothiophene-3-carbonyl]amino]-2,6-difluoro-phenyl]ethyl]benzoic Acid]

Percent Inhibition (NaPi-IIb; [1]): 62%
SMILES: CC1(C)CN(C(=O)CN)CCN1Cc1cccc(C(=O)Nc2sc3c(c2C(=O)Nc2cc(F)c(CCc4ccc(C(=O)O)cc4)c(F)c2)CCCC3)c1 [Example 6, 4-[2-[4-[[2-[[3-[[4-(2-aminoacetyl)-2,2-dimethyl-piperazin-1-yl]methyl]benzoyl]amino]-4,5,6,7-tetrahydrobenzothiophene-3-carbonyl]amino]-2,6-difluoro-phenyl]ethyl]benzoic Acid]

IC50 (murine NaPi-IIb): 8.56 nM
SMILES: COCCCCNC(=O)N1CCN(Cc2cccc(C(=O)Nc3sc4c(c3C(=O)Nc3cc(F)c(CCc5ccc(C(=O)O)cc5)c(F)c3)CCCC4)c2)C(C)(C)C1 [Example 7, 4-[2-[2,6-difluoro-4-[[2-[[3-[[4-(4-methoxybutylcarbamoyl)-2,2-dimethyl-piperazin-1-yl]methyl]benzoyl]amino]-4,5,6,7-tetrahydrobenzothiophene-3-carbonyl]amino]phenyl]ethyl]benzoic Acid]

Percent Inhibition (NaPi-IIb; [1]): 60%
SMILES: CC1(C)CN(C(=O)CCC(=O)O)CCN1Cc1cccc(C(=O)Nc2sc3c(c2C(=O)Nc2cc(F)c(CCc4ccc(C(N)=O)cc4)c(F)c2)CCCC3)c1 [Example 8, 4-[4-[[3-[[3-[[4-[2-(4-carbamoylphenyl)ethyl]-3,5-difluoro-phenyl]carbamoyl]-4,5,6,7-tetrahydrobenzothiophen-2-yl]carbamoyl]phenyl]methyl]-3,3-dimethyl-piperazin-1-yl]-4-oxo-butanoic Acid]

IC50 (murine NaPi-IIb): 9 nM
SMILES: CNC(=O)N1C2CCC1CN(Cc1cccc(C(=O)Nc3sc4ccccc4c3C(=O)Nc3cc(F)c(CCc4ccc(C(=O)O)cc4)c(F)c3)c1)C2 [Example 13, 4-[2-[2,6-difluoro-4-[[2-[[3-[[8-(methylcarbamoyl)-3,8-diazabicyclo[3.2.1]octan-3-yl]methyl]benzoyl]amino]benzothiophene-3-carbonyl]amino]phenyl]ethyl]benzoic Acid, Formic Acid Salt]
